Laboratory results as given in ChEMBL document CHEMBL1201862, “PubChem BioAssay data set” (2004).
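Interpolation was linear, between the two tested concentrations surrounding the appropriate level; five concentrations were tested over 48 hours in 96-well plates. Here, GI50 denotes the concentration required for 50% inhibition of growth.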 Calls of active or inactive are those of the source. No stated cut-off is given here; in the data, active = GI50 up to about 1.1 µM and inactive = higher.

How the values were obtained:
Assay in all cases: growth of human tumour cells (NCI), 48 h
786-0 = tested on: 786-0
BT-549 = tested on: BT-549
TK-10 = tested on: TK-10
HOP-62 = tested on: HOP-62
K562 = tested on: K562
LOX IMVI = tested on: LOX IMVI
OVCAR-4 = tested on: OVCAR-4
Hs-578T = tested on: Hs-578T
EKVX = tested on: EKVX
MDA-MB-435 = tested on: MDA-MB-435
COLO 205 = tested on: COLO 205
T47D = tested on: T47D
IGROV-1 = tested on: IGROV-1
HCT-116 = tested on: HCT-116
SK-MEL-28 = tested on: SK-MEL-28
RXF 393 = tested on: RXF 393
OVCAR-3 = tested on: OVCAR-3
HCC 2998 = tested on: HCC 2998
M14 = tested on: M14
KM12 = tested on: KM12

Row | SMILES | GI50 (786-0) | GI50 (BT-549) | GI50 (TK-10) | GI50 (HOP-62) | GI50 (K562) | GI50 (LOX IMVI) | GI50 (OVCAR-4) | GI50 (Hs-578T) | GI50 (EKVX) | GI50 (MDA-MB-435) | GI50 (COLO 205) | GI50 (T47D) | GI50 (IGROV-1) | GI50 (HCT-116) | GI50 (SK-MEL-28) | GI50 (RXF 393) | GI50 (OVCAR-3) | GI50 (HCC 2998) | GI50 (M14) | GI50 (KM12)
1 | CCc1ccc(CCN2CCCCC2)nc1 | > 100 µM (inactive) | > 100 µM (inactive) | > 100 µM (inactive) | > 100 µM (inactive) | > 100 µM (inactive) | > 100 µM (inactive) | > 100 µM (inactive) | 56.9 µM (inactive) | > 100 µM (inactive) | > 100 µM (inactive) | > 100 µM (inactive) | > 100 µM (inactive) | 58.9 µM (inactive) | > 100 µM (inactive) | > 100 µM (inactive) | > 100 µM (inactive) | 92.3 µM (inactive) | > 100 µM (inactive) | > 100 µM (inactive) | > 100 µM (inactive)
2 | CN(CCNC(=O)c1c[nH]c2c1ccc1ccccc12)CCNC(=O)c1c[nH]c2c1ccc1ccccc12 | 1.82 µM (inactive) | 9.35 µM (inactive) | 3.21 µM (inactive) | 2.36 µM (inactive) | 2.18 µM (inactive) | 1.64 µM (inactive) | 3.54 µM (inactive) | 2.94 µM (inactive) | 3.62 µM (inactive) | 1.84 µM (inactive) | 1.61 µM (inactive) | 1.14 µM (inactive) | 1.41 µM (inactive) | 1.76 µM (inactive) | 2 µM (inactive) | 1.14 µM (inactive) | 4.29 µM (inactive) | 1.41 µM (inactive) | 1.84 µM (inactive) | 1.66 µM (inactive)
3 | CCN(CCCl)c1cc(CN(C)C)cc(NC(=O)c2ccc(C(=O)Nc3cc(CN(C)C)cc(N(CC)CCCl)c3)cc2)c1 | 0.069 µM (active) | 0.226 µM (active) | 0.861 µM (active) | 0.133 µM (active) | 0.0733 µM (active) | 0.0826 µM (active) | 0.5 µM (active) | 0.103 µM (active) | 1.31 µM (inactive) | 0.162 µM (active) | 0.147 µM (active) | 0.134 µM (active) | 0.135 µM (active) | 0.0962 µM (active) | 0.159 µM (active) | 0.0278 µM (active) | 0.384 µM (active) | 0.0762 µM (active) | 0.291 µM (active) | 0.234 µM (active)
4 | O=c1c2cc(I)ccc2nc(Sc2ccc([N+](=O)[O-])cc2[N+](=O)[O-])n1Cc1ccccc1 | 0.815 µM (active) | 1.29 µM (inactive) | 7.59 µM (inactive) | 2.93 µM (inactive) | 1.78 µM (inactive) | 1.46 µM (inactive) | 2.49 µM (inactive) | 4.78 µM (inactive) | 3.55 µM (inactive) | 1.82 µM (inactive) | 5.14 µM (inactive) | 1.71 µM (inactive) | 2.02 µM (inactive) | 1.26 µM (inactive) | 7.14 µM (inactive) | 2.38 µM (inactive) | 1.9 µM (inactive) | 2.92 µM (inactive) | 1.94 µM (inactive) | 3.32 µM (inactive)
5 | CC(=O)Nc1ccc(OC2=CCN(C)CC2)cc1 | > 100 µM (inactive) | > 100 µM (inactive) | > 100 µM (inactive) | > 100 µM (inactive) | > 100 µM (inactive) | > 100 µM (inactive) | > 100 µM (inactive) | > 100 µM (inactive) | > 100 µM (inactive) | > 100 µM (inactive) | > 100 µM (inactive) | > 100 µM (inactive) | > 100 µM (inactive) | > 100 µM (inactive) | > 100 µM (inactive) | > 100 µM (inactive) | > 100 µM (inactive) | > 100 µM (inactive) | > 100 µM (inactive) | > 100 µM (inactive)
6 | C[C@H]1CC(=O)[C@@]2(O)C#C/C=C\C#C[C@@H]3Nc4c(cc(O)c5c4C(=O)c4ccccc4C5=O)[C@]24O[C@]314 | 0.0128 µM (active) | 0.0194 µM (active) | 0.0574 µM (active) | 0.00159 µM (active) | 0.0118 µM (active) | 0.0175 µM (active) | 0.271 µM (active) | 0.811 µM (active) | 0.228 µM (active) | 0.0509 µM (active) | 0.0568 µM (active) | 0.0305 µM (active) | 0.16 µM (active) | 0.00982 µM (active) | 0.0338 µM (active) | 0.0114 µM (active) | 0.136 µM (active) | 0.00647 µM (active) | 0.00916 µM (active) | 0.0927 µM (active)
7 | O=C(c1c2c(cc3c1CC1(Cc4cc5c(cc4C1)CCCC5)C3)CCCC2)C(Br)Br | 14.6 µM (inactive) | 5.48 µM (inactive) | 17 µM (inactive) | > 51.2 µM (inactive) | 4.31 µM (inactive) | 1.79 µM (inactive) | 12.4 µM (inactive) | 30.8 µM (inactive) | 34.7 µM (inactive) | 14 µM (inactive) | 13.2 µM (inactive) | 6.38 µM (inactive) | 9.02 µM (inactive) | 14.9 µM (inactive) | 16.5 µM (inactive) | 6.73 µM (inactive) | 18.7 µM (inactive) | 21.5 µM (inactive) | 4.18 µM (inactive) | 22.1 µM (inactive)
8 | Cc1ccc2c(n1)C(=O)c1cc(C)c(C)cc1C2=O | 62.1 µM (inactive) | > 100 µM (inactive) | > 100 µM (inactive) | > 100 µM (inactive) | 68.7 µM (inactive) | 68.4 µM (inactive) | 70.3 µM (inactive) | 44.2 µM (inactive) | 50.8 µM (inactive) | 85.3 µM (inactive) | 32 µM (inactive) | 49.5 µM (inactive) | 63.1 µM (inactive) | 47.6 µM (inactive) | > 100 µM (inactive) | 34 µM (inactive) | 20.5 µM (inactive) | 98.2 µM (inactive) | > 100 µM (inactive) | 53.2 µM (inactive)
9 | COC(=O)C1=C2Nc3ccccc3C23CCN2C(O)C4(CC5CC67CCOC6CCN6CCC8(c9cccc(OC)c9N(C4)C58O)C67)C4OCCC4(C1)C23 (stereo not given) | 24.3 µM (inactive) | > 100 µM (inactive) | > 100 µM (inactive) | 44.2 µM (inactive) | > 100 µM (inactive) | 95.5 µM (inactive) | 61.9 µM (inactive) | 22.5 µM (inactive) | 52.8 µM (inactive) | 58.7 µM (inactive) | > 100 µM (inactive) | 20.3 µM (inactive) | 87.7 µM (inactive) | 34.5 µM (inactive) | 97.5 µM (inactive) | 49.7 µM (inactive) | > 100 µM (inactive) | > 100 µM (inactive) | 71.9 µM (inactive) | 78.9 µM (inactive)
10 | NC(Cc1ccc(S(=O)(=O)O)cc1)C(=O)NC(Cc1ccc(S(=O)(=O)O)cc1)C(=O)NC(Cc1ccc(S(=O)(=O)O)cc1)C(=O)O (stereo not given) | > 100 µM (inactive) | > 100 µM (inactive) | > 100 µM (inactive) | > 100 µM (inactive) | > 100 µM (inactive) | > 100 µM (inactive) | > 100 µM (inactive) | > 100 µM (inactive) | > 100 µM (inactive) | > 100 µM (inactive) | > 100 µM (inactive) | > 100 µM (inactive) | > 100 µM (inactive) | > 100 µM (inactive) | > 100 µM (inactive) | > 100 µM (inactive) | > 100 µM (inactive) | > 100 µM (inactive) | > 100 µM (inactive) | > 100 µM (inactive)
11 | C/C=C/C=C\C1OC(O)([C@H](CC)C(=O)NC/C=C/C=C(\C)[C@H](OC)C(C)C2OC(\C=C/C=C/C=C(\C)C(=O)c3c(O)ccn(C)c3=O)[C@H](O)[C@@H]2O)C(O)C(O)C1(C)C (stereo not given in full) | 71 µM (inactive) | > 100 µM (inactive) | > 100 µM (inactive) | > 100 µM (inactive) | 73.5 µM (inactive) | 69.5 µM (inactive) | > 100 µM (inactive) | > 100 µM (inactive) | > 100 µM (inactive) | > 100 µM (inactive) | > 100 µM (inactive) | 40.2 µM (inactive) | 82 µM (inactive) | > 100 µM (inactive) | > 100 µM (inactive) | > 100 µM (inactive) | > 100 µM (inactive) | > 100 µM (inactive) | > 100 µM (inactive) | > 100 µM (inactive)
12 | COc1ccc(Nc2n[nH]c(NS(=O)(=O)c3cc(C)c(Cl)cc3S)n2)cc1 | > 100 µM (inactive) | > 100 µM (inactive) | > 100 µM (inactive) | > 100 µM (inactive) | > 100 µM (inactive) | > 100 µM (inactive) | > 100 µM (inactive) | > 100 µM (inactive) | > 100 µM (inactive) | > 100 µM (inactive) | > 100 µM (inactive) | > 100 µM (inactive) | > 100 µM (inactive) | > 100 µM (inactive) | > 100 µM (inactive) | > 100 µM (inactive) | > 100 µM (inactive) | > 100 µM (inactive) | > 100 µM (inactive) | > 100 µM (inactive)
13 | CCN(CC)CCNC(=O)c1ccc(I)cc1 | > 100 µM (inactive) | > 100 µM (inactive) | > 100 µM (inactive) | > 100 µM (inactive) | > 100 µM (inactive) | > 100 µM (inactive) | > 100 µM (inactive) | > 100 µM (inactive) | > 100 µM (inactive) | > 100 µM (inactive) | > 100 µM (inactive) | 64.4 µM (inactive) | > 100 µM (inactive) | > 100 µM (inactive) | > 100 µM (inactive) | > 100 µM (inactive) | > 100 µM (inactive) | > 100 µM (inactive) | > 100 µM (inactive) | > 100 µM (inactive)
